Laboratory results as given in US9944583B2, “Methods for ameliorating and preventing central nervous system inflammation” (THE REGENTS OF THE UNIVERSITY OF CALIFORNIA, priority 2007, dated 2018).

Columns and labels:
NADPH oxidase (Nox) = test: Nox activity in synaptosomes by NADPH-dependent oxygen consumption (oximetry); assay type: biochemical, mouse
Method: Synaptosomal preparations. […] Mice were euthanized by exposure to a lethal dose of inhaled halothane, followed by cervical dislocation. Brains were rapidly removed, cortices dissected and homogenized in 10 volumes of ice-cold isolation buffer (0.32M sucrose, 1 mM EDTA, 10 mM Tris-HCl buffer, pH 7.4, 10 mM glucose). The homogenate was centrifuged at 3100 rpm for 3 min at 4° C., and the supernatant collected, and the pellet was re-homogenized in half the volume of isolation buffer and centrifuged again. Synaptosomal were then isolated as described (see reference 30, below) modified as follows, the pooled supernatants were mixed with PERCOLL™ (Sigma, St. Louis, Mo.) to a final concentration of 15%, and then layered onto a step gradient of 23% and 40% PERCOLL™, and centrifuged at 16,000 rpm for 5 minutes at 4° C. The uppermost band was extracted, rinsed in isolation buffer, centrifuged and resuspended in synaptosomal buffer (120 mM NaCl, 4.7 mM KCl, 2.2 mM CaCl2, 1.2 mM MgCl2, 25 mM HEPES, 1.2 mM MgSO4, 1.2 mM KH2PO4, 10 mM glucose).
Oxygen consumption studies (oximetry). O2 consumption studies on synaptosomes are carried out. […] Studies were carried out to optimize the concentration of synaptosomal protein required, and to confirm stability and viability of synaptosomes and their mitochondria for up to 6 h.

[1] = tested on: primary neuronal cultures; test: DHE oxidation (superoxide and/or hydrogen peroxide production) in primary neuronal cultures exposed to ketamine; assay type: cell-based, mouse
[2] = tested on: pyramidal layer of CA1 in the aged hippocampus; test: in vivo superoxide production in CA1 of the aged hippocampus (DHE confocal imaging); set-up: species or system mouse; conditions: old mice; C3 by oral administration; apocynin
Method: Analysis of superoxide and/or hydrogen peroxide production by confocal imaging of in vivo dihydroethidium (DHE) oxidation. Mice will be injected intraperitoneally (i.p.) with dihydroethidium. Briefly, two serial i.p. injections of freshly prepared dihydroethidium (27 mg/kg) are given at 30 minute intervals. Eighteen hours later, mice are anesthetized with inhaled halothane, and are perfused intracardially with cold saline followed by 4% paraformaldehyde in PBS. Brains are removed and post-fixed in 2% paraformaldehyde for >24 h. Following fixation, brains are cut into 50 μm coronal sections and co-labeled with the appropriate primary and secondary antibodies for fluorescence visualization. […] First, an image is taken in the fluorescence channel of the ICC-fluorophor and then the channel is switched to image fluorescence from DHE oxidation. […] Using the image pairs for each field and MetaMorph software, an analyst blind to the group circles the outline of each ICC-labeled cell and then switches to the DHE oxidation image. The average fluorescence intensity for each cell of interest is logged, and values averaged to determine the mean fluorescence/cell.

## COc1cc(C(C)=O)ccc1O [apocynin, 4-hydroxy-3-methoxyacetophenone]
NADPH oxidase (Nox); 200 μM apocynin, synaptosomes, 5 mM NADPH
  block of NADPH-induced O2 consumption: > 90%
NADPH oxidase (Nox); apocynin added in vitro
  effect on increased Nox activity in synaptosomes from ketamine treated animals: inhibited
[1]; co-exposure with ketamine 0.5 μM 24 h, muscimol 10 μM, C3 20 μM, apocynin 0.5 mM
  effect on ketamine-mediated increase in oxidized DHE: significantly reduced
[1]; ketamine with 1 μM C3 or 500 μM apocynin for 24 h
  effect on ketamine-mediated increase in ROS / free radical production (DHE fluorescence): prevented
[2]
  effect on elevated levels of superoxide in the pyramidal layer of CA1 in the aged hippocampus: prevented
